Patent US8497075B2, “Methods of identifying a modulator that inhibits the binding between Epstein-Barr virus induced receptor 2 and cholesterol derived ligands” (Novartis AG, priority 2008, dated 2013)

Legend:
[1] = system: 26 GPCR binding assays, 9 GPCR functional assays, 40 kinase assays, ion channels, proteases, transporter and enzyme assays; conditions: data not shown
Description: So far oxysterols have been noted to have various physiological activities namely regulate the expression of genes that participate in both sterol and fat metabolism, serve as substrates for the synthesis of bile acids, and are intermediates in the transfer of sterols from the periphery to the liver (Russell, D. W. (2000). Oxysterol biosynthetic enzymes. Biochim. Biophys. Acta 1529, 126-135). […] This included binding assays for 26 different GPCRs, functional assays of 9 different GPCRs, 40 kinase assays, as well as selected ion channels, proteases, transporter and enzyme assays.

[2] = target: T1, hEBI2 (Homo sapiens, UniProt P32249); test: β-arrestin Pathhunter assay; assay type: cell-based; parameters: host or cells: HEK293-BAEA, transient transfection with Fugene6; conditions: for EC50: HEK293-BAEA transiently transfected with hEBI2-prolink, read-out: EC50, β-arrestin recruitment
T1 sequence (P32249 whole entry): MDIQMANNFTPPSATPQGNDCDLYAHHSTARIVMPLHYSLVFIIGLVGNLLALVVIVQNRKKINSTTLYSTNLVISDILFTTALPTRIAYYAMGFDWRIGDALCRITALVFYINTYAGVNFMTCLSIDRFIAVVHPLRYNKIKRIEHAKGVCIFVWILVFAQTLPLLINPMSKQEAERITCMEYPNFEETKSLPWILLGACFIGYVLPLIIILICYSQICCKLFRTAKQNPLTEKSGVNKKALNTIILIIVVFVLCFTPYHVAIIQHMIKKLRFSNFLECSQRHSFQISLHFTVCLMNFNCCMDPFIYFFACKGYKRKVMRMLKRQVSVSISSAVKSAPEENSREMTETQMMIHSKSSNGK
Description: Several assay technologies (Transfluor™, (Ghosh, R. N., et al. (2005). Quantitative cell-based high-content screening for vasopressin receptor agonists using transfluor technology. J Biomol Screen 10.; Granas, C., at al. (2005). High content screening for G protein-coupled receptors using cell-based protein translocation assays. Comb Chem High Throughput Screen 8.); Pathhunter™, (Hammer, M. M., et al. (2007). A novel enzyme complementation-based assay for monitoring G-protein-coupled receptor internalization. Faseb J, 21; Wehrman, T. S., at al. (2005). Enzymatic detection of protein translocation. Nat Methods 2), Tango™, (Barnea, G., et al. (2008). Here we have applied the Pathhunter™ technology (DiscoverRx) to probe for an interaction of EBI2 with B-arrestin. For that human EBI2 was cloned into the Prolink™ vector (DiscoveRx) for GPCR-prolink fusion protein production. Parental HEK293 cells that stably express β-arrestin2-β-gal-EA fusion protein (HEK293-BAEA) were detached and transiently transfected with hEBI2-prolink vector using Fugene6 transfection reagent in suspension mode. Transfected cells in assay medium (Phenol Red-free DMEM with 10% FBS) were plated into white solid 384 well plates at 15,000 cells/25 μl/well. After overnight incubation, 200 nl of test molecules were transferred into the cell plates by PinTool™ (GNF Systems) followed by 1-2 hour incubation at 37° C., 5% CO2. Flash detection reagents were added at 12.5 μl/well. After 5 min—1 hr room temperature incubation, the cell plates were read on CLIPR™ (Perkin Elmer) or Acquest™ (Molecular Devices) for luminescence signal.

[3] = system: bone marrow-derived dendritic cells from EBI2(−/−) mice; test: chemotaxis assay, EBI2(−/−) dendritic cells; assay type: cell-based, mouse
Method: B cells (RS11846 or EBV-infected human B-cells) or murine bone marrow-derived dendritic cells were washed once with medium and resuspended at 1×10^6/ml. 100 μl of this suspension was added into the wells of the filter plate and gently placed into the receiver plate containing 150 μl of a given compound dilution. The final DMSO concentration was less then 0.1%. After migration for 3 hr at 37° C. in an incubator, the filter plate was carefully removed from the receiver plate and discarded. The migrated cells in the receiver plate were resuspended and transferred into round-bottom 96-well plate, centrifuged and resuspended in 100 μl PBS containing 2% FCS and 0.1% NaN3 (FACS buffer). The input cells (100 μl) were similarly processed. For the calculation of the specific migration, a fixed number of beads (10000; Invitrogen #PCB100)) in 20 μl FACS buffer was added and the suspension was analyzed by flow cytometry using a FACS instrument PAS™ (Partec). Cells were identified based on their forward scatter (FSC) and side scatter (SSC) pattern. Chemotaxis is expressed either as total cell number or as percent of input cells.
In order to generate sufficient numbers of dendritic cells (DC) we isolated bone marrow from wild type and EBI2-deficient mice (Deltagen) and treated them in culture for 7-8 days with murine IL4 and murine GM-CSF. […]

[4] = target: T1, hEBI2; test: luminescent aequorin functional assay, hEBI2 CHO-Aeq (Gqi5) cells; assay type: cell-based; parameters: expressed in transfected cells; host or cells: CHO-K1 expressing apoaequorin (CHO-Aeq) with Gqi5; line E2
Description: (§1) The human EBI2 was inserted into the pEFIN3 vector at the EcoRI and XbaI sites in the multiple cloning site. Mouse EBI2 was cloned using RT-PCR from mouse genomic DNA and corresponded to the Genbank accession number Q3U6B2. The mouse EBI2 was inserted into the pEFIN3 vector at the EcoRI and XbaI sites in the multiple cloning site. Plasmids expressing human and mouse EBI2 were stably transfected in CHO-K1 and HEK293 cells expressing the apoaequorin (CHO-Aeq and HEK-Aeq) (Table 1). mRNA sequence integrity of EBI2 gene was checked using RT-PCR at T0 & T30 culture times in CHO cells.
hEBI2 CHO-Aeq cell lines were screened in a luminescent aequorin functional assay against proprietary libraries of natural ligands and collection of tissue extracts.
3 oxysterol and 3 vitamin D3 compounds were tested for EBI2 activation in an aequorin assay.

[5] = target: T2, mouse EBI2 receptor (Mus musculus, UniProt Q3U6B2); test: aequorin assay, mouse EBI2 CHO-Aeq cells; assay type: cell-based
T2 construct: expressed in transfected cells; host or cells: CHO-K1 expressing apoaequorin (CHO-Aeq), Gqi5 or Gα16 background
T2 sequence (Q3U6B2 whole entry): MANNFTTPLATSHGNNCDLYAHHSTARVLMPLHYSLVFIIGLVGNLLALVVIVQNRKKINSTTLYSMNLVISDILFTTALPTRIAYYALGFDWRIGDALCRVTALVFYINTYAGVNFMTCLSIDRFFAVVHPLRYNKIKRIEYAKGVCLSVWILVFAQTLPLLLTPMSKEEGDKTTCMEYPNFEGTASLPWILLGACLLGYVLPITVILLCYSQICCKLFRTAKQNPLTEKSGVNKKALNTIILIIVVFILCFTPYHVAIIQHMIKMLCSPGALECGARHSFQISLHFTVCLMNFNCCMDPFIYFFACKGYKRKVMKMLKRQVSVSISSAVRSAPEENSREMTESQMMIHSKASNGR
Description: as §1, with “Human EBI2 gene was cloned using RT-PCR from HL-60 cDNA and corresponded to the Genbank accession number NP_004942. The human” for “The human”
We also confirmed activation of hEBI2 by 7b,25DHC in different CHO-Aeq cell backgrounds (Gqi5 and Gα16 (=WTA11)) (FIG. 14). […] Finally, we confirmed activation of hEBI2 by 7b,25DHC with hEBi2-HEK-Aeq Gα16 cells (pCAeqG9) and hEBi2 transiently transfected in HEK T cells (data not shown).

SMILES: C[C@H](CCCC(C)(C)O)[C@H]1CC[C@H]2[C@@H]3[C@H](O)C=C4C[C@@H](O)CC[C@]4(C)[C@H]3CC[C@]12C [7a,25DHC, cholest-5-ene-3b,7a,25-triol]
- interaction in safety panel [1]: In none of these assay did we see a significant interaction
- EC50 [2]: 8 nM
- migration of DCs from EBI2(−/−) mice towards compound [3]: do not migrate

SMILES: C[C@H](CCCC(C)(C)O)[C@H]1CC[C@H]2[C@@H]3[C@@H](O)C=C4C[C@@H](O)CC[C@]4(C)[C@H]3CC[C@]12C [7b,25DHC, cholest-5-ene-3b,7b,25-triol]
- efficacy compared to the ATP response ([4]; ATP response = endogenous P2Y receptors): greater than 100%
- activation of hEBI2 in different CHO-Aeq cell backgrounds ([4]; Gqi5 and Gα16 (=WTA11)): activation
- specificity and selectivity of hEBI2 activation ([4]; compared to WT CHO-AeqGqi5 cells and unrelated GPCRs HCR and GPR23): specifically and selectively activates
- efficacy, β-arrestin recruitment [2]: 48%
- EC50 [2]: 837 nM
- activation of mouse EBI2 receptor [5]: activation
